Measurements reported in US20130101582A1, “Tiki1 and Tiki2, Wnt Inhibitors” (CHILDREN'S MEDICAL CENTER CORPORATION, priority 2010, published 2013).

Columns and labels:
Tiki1 expression = assay: Regulation of Tiki1 and Dkk1 expression by maternal Wnt signaling, RT-PCR; type: in vivo; details: Xenopus embryos, RT-PCR at stage 10.5
Experimental: FIG. 3C is a gel showing that Tiki1 expression is regulated by maternal Wnt signaling. Whole embryos were used for LiCl or UV treatment. 20 or 40 pg of Xwnt8 mRNA was injected into ventral marginal zone (VMZ) at 4 to 8-cell stage and VMZ was dissected at stage 10.5 for RT-PCR. ΔNTCF mRNA (1 or 2 ng) was injected into dorsal marginal zone (DMZ) at 4 to 8-cell stage and DMZ was dissected at stage 10.5 for RT-PCR. Con: control.
SO formation requires maternal Wnt/β-catenin signaling (De Robertis, E. M. et al., Annu Rev Cell Dev Biol 20, 285-308 (2004); Harland, R. et al., Annu Rev Cell Dev Biol 13, 611-667 (1997)), which we found is necessary and sufficient for Tiki1 (and Dkk1) expression.

Xenopus embryos [1] = assay: Organizer gene expression in morpholino-injected whole Xenopus embryos (Table 1); type: in vivo; parameters: Whole embryos displaying change in gene expression: Reduced, Percentage (%): concentration or dose not given beside the values
Experimental: (§1) A functional cDNA expression screen was performed using arrayed Xenopus cDNAs to identify novel genes involved in AP patterning and Wnt signaling. Procedures for embryo manipulation, reverse transcription PCR and in situ hybridization were performed as previously described (Tamai, K. et al., Nature 407, 530-535 (2000)). The Arrayed Xenopus tropicalis full length cDNAs were used for the screening as performed previously (Kato, Y. et al., Nature 418, 641-646 (2002)). cDNA pools (in the CS107 vector) that contain 96 independent clones were transcribed in vitro using SP6 polymerase, and the resulting mRNA pools were injected into the dorsal side of the embryo at 4-cell stage at the dose of 10 ng RNA/embryo. Injected embryos were scored at stage 30-31 for enlarged or diminished anterior development. The positive pools were divided into smaller pools and the same process was repeated until a single cDNA was identified.
HA-Tiki1 mRNA injection rescued the effect of Tiki1MO on all head organizer genes examined (Table 1).

[2] = tested on: Xenopus Tiki1 protein synthesis; assay: Tiki1 protein synthesis in embryos with morpholino, Western blotting of animal caps; type: in vivo
Experimental: FIG. 4A is a gel showing that Xenopus Tiki1 protein synthesis is specifically targeted by an antisense morpholino oligonucleotide (MO). 500 pg mRNA for Tiki1-FLAG (targeted by MO) or HA-Tiki1 (resistant to MO) were injected with or without the Tiki1MO (5, 10, 20, 40 ng) into the animal pole at the 2-cell stage, and animal caps were dissected at stage 10 for Western blotting.
(§2) 20 ng of Tiki1MO was injected into two dorsal blastomeres of 8-cell stage embryos.

Xenopus embryos [3] = assay: Anterior neural marker expression in morpholino-injected whole embryos (Table 2); type: in vivo; details: stage 16
Experimental: as §1
The specific expression in and the requirement for the formation of the head organizer imply Tiki1 function in anterior neural patterning. Tiki1MO was injected with fluorescein dextran (FLD, as a lineage tracer) into one dorsal-animal blastomeres at the 8-cell stage and analyzed expression of anterior neural markers at stage 16. Tiki1 MO suppressed the expression of, in the injected half of the embryo, forebrain marker BF1 and Otx2 (Table 2). […] HA-Tiki1 mRNA injection rescued the expression of BF1, Otx2, and En2 in Tiki1MO-injected embryos (Table 2).

Xenopus embryos [4] = assay: Tiki1MO anterior development/head formation phenotype; type: in vivo; details: 20 ng injected into two dorsal blastomeres of 8-cell stage embryos
Experimental: as §2

Wnt3a signaling = assay: TOPFLASH reporter assay, Wnt3a co-transfected with Tiki1 or Tiki2 in HEK293T cells; type: cell-based, human
Description: Wnt3a and Tiki1 or Tiki2 were co-transfected. The TOPFLASH reading (normalized to Renilla) in Wnt3a alone was set as 100. DNA transfection amounts are shown per well in a standard 24-well plate format. Representative data from one of three independent experiments is shown.
The enlarged head phenotype by Tiki1 overexpression is indistinguishable from that by overexpression of Dkk1, a Wnt/LRP6 antagonist (MacDonald, B. T. et al., Dev Cell 17, 9-26 (2009); Glinka, A. et al., Nature 391, 357-362 (1998)). […] Thus Tiki1 likely acts at or upstream of Wnt receptors. […] Xenopus Tiki2, and human Tiki1 and Tiki2 also behaved as Wnt antagonists in Xenopus embryos, HEK293T cells (FIG. 2C) and mouse L cells (FIG. 5A).

[5] = target: Recombinant human WNT3A protein (Homo sapiens, UniProt P56704); assay: In vitro incubation of recombinant WNT3A with purified protein, Triton X-114 phase separation; type: biochemical; details: purified protein incubated with recombinant human WNT3A
Experimental: FIG. 6G is a gel showing that recombinant WNT3A was incubated with Krm2N or Tiki2N purified from WCL (top) or from CM (bottom) and was subjected to Triton X-114 phase separation.
FIG. 6H is a gel showing that Recombinant WNT3A was incubated with Krm2N or Tiki2N or Tiki2NΔ. purified from WCL and was subjected to Triton X-114 phase separation.
Recombinant human Tiki2N, which is the ectodomain harboring the conserved Tiki domain (FIG. 6J), was purified, via tandem affinity procedures from HEK293T cell extracts or CM.

[6] = gene Chd, stage 10.5, injected in two dorsal blastomeres at 8-cell stage
[7] = gene Gsc st.13 (prechordal plate, neurula stage)

Recombinant human WNT3A protein, sequence (P56704 19-352): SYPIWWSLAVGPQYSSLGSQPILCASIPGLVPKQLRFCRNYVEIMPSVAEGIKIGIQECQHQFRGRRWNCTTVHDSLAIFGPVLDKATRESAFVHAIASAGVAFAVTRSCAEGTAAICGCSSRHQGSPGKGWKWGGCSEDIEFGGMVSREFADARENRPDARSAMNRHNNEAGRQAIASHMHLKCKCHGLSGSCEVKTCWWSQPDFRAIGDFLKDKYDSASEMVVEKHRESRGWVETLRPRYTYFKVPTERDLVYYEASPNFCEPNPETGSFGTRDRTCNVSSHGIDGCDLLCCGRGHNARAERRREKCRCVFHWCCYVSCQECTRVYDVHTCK

[Cl-].[Li+] [LiCl]
Tiki1 and Dkk1 expression (Tiki1 expression): induced Tiki1 and Dkk1 expression

Tiki1 MO: morpholino antisense oligonucleotide against Tiki1, 5′-CCAAATGATTACCATCATAGCTCAG-3′ (SEQ ID NO:13) (all phosphorodiamidate morpholino (PMO))
Whole embryos displaying change in gene expression: Absent, Percentage (%) (Xenopus embryos [1]; [6]): 0%
Whole embryos displaying change in gene expression: NC (No Change), Percentage (%) (Xenopus embryos [1]; [6]): 64%
Whole embryos displaying change in gene expression: Reduced, Percentage (%) (Xenopus embryos [1]; [6]): 36%
Whole embryos displaying change in gene expression: Absent, Percentage (%) (Xenopus embryos [1]; gene Dkk1, stage 10.5): 25%
Whole embryos displaying change in gene expression: NC (No Change), Percentage (%) (Xenopus embryos [1]; gene Dkk1, stage 10.5): 35%
Whole embryos displaying change in gene expression: Reduced, Percentage (%) (Xenopus embryos [1]; gene Dkk1, stage 10.5): 40%
Whole embryos displaying change in gene expression: Absent, Percentage (%) (Xenopus embryos [1]; [7]): 35%
Whole embryos displaying change in gene expression: NC (No Change), Percentage (%) (Xenopus embryos [1]; [7]): 33%
Whole embryos displaying change in gene expression: Reduced, Percentage (%) (Xenopus embryos [1]; [7]): 32%
Whole embryos displaying change in gene expression: Absent, Percentage (%) (Xenopus embryos [1]; gene Gsc, stage 10.5): 0%
Whole embryos displaying change in gene expression: NC (No Change), Percentage (%) (Xenopus embryos [1]; gene Gsc, stage 10.5): 34%
Whole embryos displaying change in gene expression: Reduced, Percentage (%) (Xenopus embryos [1]; gene Gsc, stage 10.5): 66%
Whole embryos displaying change in gene expression: Absent, Percentage (%) (Xenopus embryos [1]; gene Lim1, stage 10.5): 28%
Whole embryos displaying change in gene expression: NC (No Change), Percentage (%) (Xenopus embryos [1]; gene Lim1, stage 10.5): 18%
Whole embryos displaying change in gene expression: Reduced, Percentage (%) (Xenopus embryos [1]; gene Lim1, stage 10.5): 54%
Whole embryos displaying change in gene expression: Absent, Percentage (%) (Xenopus embryos [1]; gene Otx2, stage 10.5): 7%
Whole embryos displaying change in gene expression: NC (No Change), Percentage (%) (Xenopus embryos [1]; gene Otx2, stage 10.5): 33%
Whole embryos displaying change in gene expression: Reduced, Percentage (%) (Xenopus embryos [1]; gene Otx2, stage 10.5): 60%
Whole embryos displaying change in gene expression: Absent, Percentage (%) (Xenopus embryos [1]; gene Xnot, stage 10.5): 0%
Whole embryos displaying change in gene expression: NC (No Change), Percentage (%) (Xenopus embryos [1]; gene Xnot, stage 10.5): 87%
Whole embryos displaying change in gene expression: Reduced, Percentage (%) (Xenopus embryos [1]; gene Xnot, stage 10.5): 13%
Whole embryos displaying change in gene expression: Absent, Percentage (%) (Xenopus embryos [1]; gene Xnr3, stage 10.5): 0%
Whole embryos displaying change in gene expression: NC (No Change), Percentage (%) (Xenopus embryos [1]; gene Xnr3, stage 10.5): 93%
Whole embryos displaying change in gene expression: Reduced, Percentage (%) (Xenopus embryos [1]; gene Xnr3, stage 10.5): 7%
Synthesis of HA-Tiki1 ([2]; HA-Tiki1 mRNA lacks the MO complementary sequence): unable to block the synthesis
Synthesis of exogenously expressed Tiki1 (Tiki1-FLAG) ([2]; Tiki1-FLAG mRNA targeted by MO, animal caps stage 10): specifically blocked the synthesis
Whole embryos displaying change in gene expression: NC (No Change), Percentage (%) (Xenopus embryos [3]; gene BF1): 14%
Whole embryos displaying change in gene expression: Reduced, Percentage (%) (Xenopus embryos [3]; gene BF1): 23%
Whole embryos displaying change in gene expression: increased, Percentage (%) (Xenopus embryos [3]; gene BF1): 0%
Whole embryos displaying change in gene expression: Absent, Percentage (%) (Xenopus embryos [3]; gene BF1, injected into one dorsal-animal blastomere at 8-cell stage): 63%
Whole embryos displaying change in gene expression: Absent, Percentage (%) (Xenopus embryos [3]; gene En-2): 40%
Whole embryos displaying change in gene expression: NC (No Change), Percentage (%) (Xenopus embryos [3]; gene En-2): 35%
Whole embryos displaying change in gene expression: Reduced, Percentage (%) (Xenopus embryos [3]; gene En-2): 25%
Whole embryos displaying change in gene expression: increased, Percentage (%) (Xenopus embryos [3]; gene En-2): 0%
Whole embryos displaying change in gene expression: Absent, Percentage (%) (Xenopus embryos [3]; gene HoxB9): 0%
Whole embryos displaying change in gene expression: NC (No Change), Percentage (%) (Xenopus embryos [3]; gene HoxB9): 100%
Whole embryos displaying change in gene expression: Reduced, Percentage (%) (Xenopus embryos [3]; gene HoxB9): 0%
Whole embryos displaying change in gene expression: increased, Percentage (%) (Xenopus embryos [3]; gene HoxB9): 0%
Whole embryos displaying change in gene expression: Absent, Percentage (%) (Xenopus embryos [3]; gene Otx2): 35%
Whole embryos displaying change in gene expression: NC (No Change), Percentage (%) (Xenopus embryos [3]; gene Otx2): 35%
Whole embryos displaying change in gene expression: Reduced, Percentage (%) (Xenopus embryos [3]; gene Otx2): 30%
Whole embryos displaying change in gene expression: increased, Percentage (%) (Xenopus embryos [3]; gene Otx2): 0%
Injected embryos that developed anterior defects (Xenopus embryos [4]): roughly 50%

B1: Human Tiki1: Human Tiki1 (Q86V40/LOC129293) (SEQ ID NO:1), expressed by transfection (protein, listed as Homo sapiens)
chain: MSPWSWFLLQTLCLLPTGAASRRGAPGTANCELKPQQSELNSFLWTIKRDPPSYFFGTIHVPYTRVWDFIPDNSKEAFLQSSIVYFELDLTDPYTISALTSCQMLPQGENLQDVLPRDIYCRLKRHLEYVKLMMPLWMTPDQRGKGLYADYLFNAIAGNWERKRPVWVMLMVNSLTEVDIKSRGVPVLDLFLAQEAERLRKQTGAVEKVEEQCHPLNGLNFSQVIFALNQTLLQQESLRAGSLQIPYTTEDLIKHYNCGDLSSVILSHDSSQVPNFINATLPPQERITAQEIDSYLRRELIYKRNERIGKRVKALLEEFPDKGFFFAFGAGHFMGNNTVLDVLRREGYEVEHAPAGRPIHKGKSKKTSTRPTLSTIFAPKVPTLEVPAPEAVSSGHSTLPPLVSRPGSADTPSEAEQRFRKKRRRSQRRPRLRQFSDLWVRLEESDIVPQLQVPVLDRHISTELRLPRRGHSHHSQMVASSACLSLWTPVFWVLVLAFQTETPLL
Wnt3a signaling, TOPFLASH reporter (Wnt3a signaling): inhibit Wnt3a signaling

B2: Tiki2NΔ: deletion mutant lacking a segment of the Tiki domain, inactive in modifying WNT3A (protein)
chain: RPQPPDGGQCRPPGSQRDLNSFLWTIRRDPPAYLFGTIHVPYTRVWDFIPDNSKAAFQASTRVYFELDLTDPYTISALASCQLLPHGENLQDVLPHELYWRLKRHLDYVKLMMPSWMTPAQRGKGLYADYLFNAIAGNWERKRPVWVMLMVNSLTERDVRFRGVPVLDLYLAQQAEKMKKTTGAVEQVEEQCHPLNNGLNFSQVLFALNQTLLQQESVRAGSLQASYTTEDLIKHYNCGDLSAVIFNHDTSQLPNFINTTLPPHEQVTAQEIDSYFRQELIYKRNERMGKRVMALLRENEDKICFFAFGAGHFLGNNTVIDILRQAGLEVDHTPAGQAIHSPAPQSPAPSPEGTSTSPAPVTPAAAVPEAPSVTPTAPPEDEDPALSPHLLLPDSLSQLEEFGRQRKWHKRQSTHQRPRQFNDLWVRIEDSTTASPPPLPLQPTHSSGTAKPPFQLSDQLQQQDPPG
modifications: left off: small tags and cut ends
Partitioning of WNT3A in Triton X-114 phase separation after in vitro incubation [5]: remained in the detergent phase

B3: KrmN: control recombinant protein, ectodomain of the transmembrane Kremen protein (protein, UniProt Q8NCW0 26-364, looked up)
extracellular domain: GSLHSPGLSECFQVNGADYRGHQNRTGPRGAGRPCLFWDQTQQHSYSSASDPHGRWGLGAHNFCRNPDGDVQPWCYVAETEEGIYWRYCDIPSCHMPGYLGCFVDSGAPPALSGPSGTSTKLTVQVCLRFCRMKGYQLAGVEAGYACFCGSESDLARGRLAPATDCDQICFGHPGQLCGGDGRLGVYEVSVGSCQGNWTAPQGVIYSPDFPDEYGPDRNCSWALGPPGAALELTFRLFELADPRDRLELRDAASGSLLRAFDGARPPPSGPLRLGTAALLLTFRSDARGHAQGFALTYRGLQDAAEDPEAPEGSAQTPAAPLDGANVSCSPRPGAPPAA
modifications: extracellular domain
Partitioning of WNT3A in Triton X-114 phase separation after in vitro incubation [5]: remained in the detergent phase
